From ChEMBL document CHEMBL3813591, “Tasiamide F, a potent inhibitor of cathepsins D and E from a marine cyanobacterium” (Bioorg Med Chem, 2016)
pIC50: −log10 of the molar value. Starred links: 1 amine or outer side, 2 acyl side, 3 side chain; linkers in the order of their positions; H or OH if unused. Non-standard residues stand in square brackets, D forms with d. Residues, ends and D or L forms follow the SMILES beside them. Ahppa(3S,4S) = O=C(C[C@H](O)[C@H](Cc1ccccc1)N[*:1])[*:2]; dNMeF = CN[C@H](Cc1ccccc1)C(=O)O; NMeQ = CN[C@@H](CCC(N)=O)C(=O)O; Lac = C[C@H](O)C(=O)O

What was measured:
Cathepsin D = Cathepsin D (Homo sapiens, UniProt P07339); test: Inhibition of human liver cathepsin D using Mca-Gly-Lys-Pro-Ile-Leu-Phe-Phe-Arg-Leu-Lys-(Dnp)-D-Arg-NH2 as substrate preincubated for 15 mins followed by substrate addition measured every 5 mins for 120 mins by fluorescence analysis
Cathepsin E = biological target: T1, Cathepsin E (Homo sapiens, UniProt P14091); test: Inhibition of human recombinant cathepsin E using Mca-Gly-Lys-Pro-Ile-Leu-Phe-Phe-Arg-Leu-Lys-(Dnp)-D-Arg-NH2 as substrate preincubated for 15 mins followed by substrate addition measured every 5 mins for 120 mins by fluorescence analysis
T1 sequence (P14091 whole entry): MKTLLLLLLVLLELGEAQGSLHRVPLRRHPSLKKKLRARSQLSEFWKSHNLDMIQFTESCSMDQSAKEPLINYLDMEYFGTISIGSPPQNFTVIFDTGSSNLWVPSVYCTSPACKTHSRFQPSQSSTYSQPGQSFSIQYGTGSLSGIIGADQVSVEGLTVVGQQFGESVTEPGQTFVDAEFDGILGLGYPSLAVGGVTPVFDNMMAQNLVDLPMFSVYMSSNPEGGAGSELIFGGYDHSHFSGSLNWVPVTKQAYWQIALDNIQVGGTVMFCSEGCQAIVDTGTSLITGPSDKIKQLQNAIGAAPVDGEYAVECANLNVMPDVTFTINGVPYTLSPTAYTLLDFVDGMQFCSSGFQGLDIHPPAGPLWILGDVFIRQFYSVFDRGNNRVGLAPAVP

Homo sapiens [1] = species on record: Homo sapiens; test: Selectivity ratio of IC50 for human liver cathepsin D to IC50 for human recombinant cathepsin E
Beta-secretase 1 = Beta-secretase 1 (Homo sapiens, UniProt P56817); test: Inhibition of BACE1 (unknown origin) using peptide substrate by time-course measurement-based fluorescence analysis
Homo sapiens [2] = species on record: Homo sapiens; test: Selectivity ratio of IC50 for BACE1 (unknown origin) to IC50 for human liver cathepsin D
Homo sapiens [3] = species on record: Homo sapiens; test: Selectivity ratio of IC50 for BACE1 (unknown origin) to IC50 for human recombinant cathepsin E

Chain of Beta-secretase 1 (P56817 whole entry): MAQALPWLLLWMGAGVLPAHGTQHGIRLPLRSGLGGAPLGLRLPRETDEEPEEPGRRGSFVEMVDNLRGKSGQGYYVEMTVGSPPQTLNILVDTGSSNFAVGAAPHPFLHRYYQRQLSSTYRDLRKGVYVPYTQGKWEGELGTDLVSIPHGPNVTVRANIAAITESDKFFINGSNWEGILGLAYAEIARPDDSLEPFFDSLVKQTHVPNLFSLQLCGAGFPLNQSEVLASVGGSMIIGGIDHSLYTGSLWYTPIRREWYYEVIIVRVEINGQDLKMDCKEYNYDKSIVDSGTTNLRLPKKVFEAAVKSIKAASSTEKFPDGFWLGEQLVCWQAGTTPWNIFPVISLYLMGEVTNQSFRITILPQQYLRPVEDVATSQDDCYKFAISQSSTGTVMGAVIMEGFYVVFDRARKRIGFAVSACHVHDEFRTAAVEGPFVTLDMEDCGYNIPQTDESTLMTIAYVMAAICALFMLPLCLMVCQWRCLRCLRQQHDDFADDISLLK
Chain of Cathepsin D (P07339 65-162 limits assumed): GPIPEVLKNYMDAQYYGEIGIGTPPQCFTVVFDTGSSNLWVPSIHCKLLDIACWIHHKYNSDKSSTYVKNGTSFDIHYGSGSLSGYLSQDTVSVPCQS
Chain of Cathepsin D (P07339 169-412 limits assumed): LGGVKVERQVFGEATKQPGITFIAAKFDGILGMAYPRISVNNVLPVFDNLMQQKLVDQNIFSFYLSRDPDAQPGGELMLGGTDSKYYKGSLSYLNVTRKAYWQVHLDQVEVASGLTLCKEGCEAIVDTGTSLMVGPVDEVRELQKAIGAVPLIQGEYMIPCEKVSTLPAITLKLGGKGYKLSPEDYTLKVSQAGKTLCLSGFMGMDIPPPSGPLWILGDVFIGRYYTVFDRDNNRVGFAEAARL

pIC50 (Cathepsin D): 7.24 | pIC50 (Cathepsin E): 7.64 | Ratio IC50 (Homo sapiens [1]): 2.4 | pIC50 (Beta-secretase 1): 6.16 | Ratio IC50 (Homo sapiens [2]): 12 | Ratio IC50 (Homo sapiens [3]): 30
SMILES: CC[C@H](C)[C@H](NC(=O)C[C@H](O)[C@H](Cc1ccccc1)NC(=O)[C@H](CCC(N)=O)N(C)C(=O)[C@@H](NC(=O)[C@H](C)O)[C@@H](C)CC)C(=O)NCC(=O)N(C)[C@H](Cc1ccccc1)C(=O)N1CCC[C@H]1C(=O)OC (H-[Lac]I[NMeQ][Ahppa(3S,4S)]IG[dNMeF]P-OMe)
